Results reported in ChEMBL document CHEMBL5608173, “Discovery of novel natural-product-derived mutant isocitrate dehydrogenases 1 inhibitors: Structure-based virtual screening, biological evaluation and structure-activity relationship study” (Eur J Med Chem, 2024).
Active and inactive are the calls of the source. The calls are words filed in the database; no cut-off is given here.

Legend:
[1] = test system: Isocitrate dehydrogenase [NADP] cytoplasmic (Homo sapiens), O75874 [R132H]; experiment: Inhibition of recombinant human IDH1 R132H mutant extracted from Escherichia coli BL21 (DE3) cells using alpha-ketoglutarate as substrate at 2 uM incubated for 60 mins in presence of NADPH by absorbance based assay relative to control
HT-1080 [2] = experiment: Cell cycle arrest in human HT-1080 cells assessed as G2 phase cells at 2 uM incubated for 24 hrs by PI staining based flow cytometric analysis (reference value: 23.6 %); format: functional
[3] = biological target: T1, Isocitrate dehydrogenase [NADP] cytoplasmic (Homo sapiens, UniProt O75874, R132H); experiment: Inhibition of recombinant human IDH1 R132H mutant extracted from Escherichia coli BL21 (DE3) cells using alpha-ketoglutarate as substrate incubated for 60 mins in presence of NADPH by absorbance based assay
[4] = biological target: Isocitrate dehydrogenase [NADP] cytoplasmic (Homo sapiens, UniProt O75874, R132C); experiment: Inhibition of recombinant human IDH1 R132C mutant extracted from Escherichia coli BL21 (DE3) cells using alpha-ketoglutarate as substrate incubated for 60 mins in presence of NADPH by absorbance based assay
[5] = biological target: T1, Isocitrate dehydrogenase [NADP] cytoplasmic; experiment: Inhibition of IDH1 R132H mutant in human U-87 MG cells assessed as reduction in 2-HG level incubated for 48 hrs in presence of NAD+ by resazurin fluorescence dye based Sigma MAK320-1 assay kit analysis; format: cell-based
HT-1080 [6] = experiment: Antiproliferative activity against human HT-1080 cells harboring IDH1 R132C mutant assessed as reduction in cell viability at 10 uM incubated for 72 hrs by MTT assay; format: functional, cell-based
HT-1080 [7] = experiment: Antiproliferative activity against human HT-1080 cells harboring IDH1 R132C mutant assessed as reduction in cell viability incubated for 72 hrs by MTT assay; format: functional
BEAS-2B = experiment: Cytotoxicity against human BEAS-2B cells assessed as reduction in cell viability at 0.5 to 2 uM; format: toxicity, cell-based; conditions: dose 0.5-2 µM
HT-1080 [8] = experiment: Induction of apoptosis in human HT-1080 cells assessed as viable cells at 2 uM incubated for 48 hrs by Annexin V-FITC/PI staining based flow cytometric analysis (reference value: 96.07 %); format: functional; conditions: read-out: Activity
HT-1080 [9] = experiment: Induction of apoptosis in human HT-1080 cells assessed as necrotic cells at 2 uM incubated for 48 hrs by Annexin V-FITC/PI staining based flow cytometric analysis (reference value: 0.45 %); format: functional
HT-1080 [10] = experiment: Induction of apoptosis in human HT-1080 cells assessed as early apoptotic cells at 4 uM incubated for 48 hrs by Annexin V-FITC/PI staining based flow cytometric analysis (reference value: 2.33 %); format: functional
HT-1080 [11] = experiment: Induction of apoptosis in human HT-1080 cells assessed as late apoptotic cells at 8 uM incubated for 48 hrs by Annexin V-FITC/PI staining based flow cytometric analysis (reference value: 1.15 %); format: functional
HT-1080 [12] = experiment: Induction of apoptosis in human HT-1080 cells assessed as viable cells at 6 uM incubated for 12 hrs by Annexin V-FITC/PI staining based flow cytometric analysis (reference value: 96.65 %); format: functional; conditions: read-out: Activity
HT-1080 [13] = experiment: Induction of apoptosis in human HT-1080 cells assessed as early apoptotic cells at 6 uM incubated for 12 hrs by Annexin V-FITC/PI staining based flow cytometric analysis (reference value: 2.36 %); format: functional
HT-1080 [14] = experiment: Induction of apoptosis in human HT-1080 cells assessed as early apoptotic cells at 6 uM incubated for 24 hrs by Annexin V-FITC/PI staining based flow cytometric analysis (reference value: 2.36 %); format: functional
HT-1080 [15] = experiment: Induction of apoptosis in human HT-1080 cells assessed as early apoptotic cells at 6 uM incubated for 48 hrs by Annexin V-FITC/PI staining based flow cytometric analysis (reference value: 2.36 %); format: functional
HT-1080 [16] = experiment: Induction of apoptosis in human HT-1080 cells assessed as necrotic cells at 6 uM incubated for 48 hrs by Annexin V-FITC/PI staining based flow cytometric analysis (reference value: 0.38 %); format: functional
HT-1080 [17] = experiment: Cell cycle arrest in human HT-1080 cells assessed as G1 phase cells at 2 uM incubated for 24 hrs by PI staining based flow cytometric analysis (reference value: 58.1 %); format: functional
HT-1080 [18] = experiment: Cell cycle arrest in human HT-1080 cells assessed as S phase cells at 2 uM incubated for 24 hrs by PI staining based flow cytometric analysis (reference value: 18.3 %); format: functional
HT-1080 [19] = experiment: Cell cycle arrest in human HT-1080 cells assessed as G1 phase cells at 4 uM incubated for 24 hrs by PI staining based flow cytometric analysis (reference value: 58.1 %); format: functional
HT-1080 [20] = experiment: Cell cycle arrest in human HT-1080 cells assessed as G2 phase cells at 4 uM incubated for 24 hrs by PI staining based flow cytometric analysis (reference value: 23.6 %); format: functional
HT-1080 [21] = experiment: Cell cycle arrest in human HT-1080 cells assessed as G2 phase cells at 8 uM incubated for 24 hrs by PI staining based flow cytometric analysis (reference value: 23.6 %); format: functional
HT-1080 [22] = experiment: Cell cycle arrest in human HT-1080 cells assessed as G1 phase cells at 10 uM incubated for 24 hrs by PI staining based flow cytometric analysis (reference value: 58.1 %); format: functional
HT-1080 [23] = experiment: Inhibition of cell migration in human HT-1080 cells incubated for 24 hrs by cell scratch assay; format: functional, cell-based; conditions: dose 1-3 µM
[24] = Toxicity in Sprague-Dawley rat assessed as observable clinical signs at 5 mg/kg, po measured after 24 hrs; format: organism-based; conditions: in vivo
[25] = Half-life in Sprague-Dawley rat at 0.5 mg/kg, iv measured after 24 hrs by LC-MS/MS analysis; format: ADME, organism-based; conditions: in vivo
[26] = Tmax in Sprague-Dawley rat at 0.5 mg/kg, iv measured after 24 hrs by LC-MS/MS analysis; format: ADME, organism-based; conditions: in vivo
[27] = Cmax in Sprague-Dawley rat at 0.5 mg/kg, iv measured after 24 hrs by LC-MS/MS analysis; format: ADME, organism-based; conditions: in vivo
[28] = AUC (0 to t) in Sprague-Dawley rat at 0.5 mg/kg, iv measured after 24 hrs by LC-MS/MS analysis; format: ADME, organism-based; conditions: in vivo
[29] = Clearance in Sprague-Dawley rat at 0.5 mg/kg, iv measured after 24 hrs by LC-MS/MS analysis; format: ADME, organism-based; conditions: in vivo
[30] = Cmax in Sprague-Dawley rat at 5 mg/kg, po measured after 24 hrs by LC-MS/MS analysis; format: ADME, organism-based; conditions: in vivo
[31] = Clearance in Sprague-Dawley rat at 5 mg/kg, po measured after 24 hrs by LC-MS/MS analysis; format: ADME, organism-based; conditions: in vivo
[32] = In vivo inhibition of IDH1 mutant in female nude mouse xenografted with human HT-1080 cells assessed as reduction in 2-HG levels in tumor at 40 mg/kg, ip administered twice at 1 hrs interval by resazurin fluorescence dye based Sigma MAK320-1 assay kit analysis relative to control; format: functional
HT-1080 [33] = experiment: Antitumor activity against human HT-1080 cells xenografted in female nude mouse assessed as suppression of tumor growth at 40 mg/kg, ip administered every 2 days for 8 days; format: functional, organism-based; conditions: time 8.0 day

T1 sequence (O75874 2-414 R132H limits assumed): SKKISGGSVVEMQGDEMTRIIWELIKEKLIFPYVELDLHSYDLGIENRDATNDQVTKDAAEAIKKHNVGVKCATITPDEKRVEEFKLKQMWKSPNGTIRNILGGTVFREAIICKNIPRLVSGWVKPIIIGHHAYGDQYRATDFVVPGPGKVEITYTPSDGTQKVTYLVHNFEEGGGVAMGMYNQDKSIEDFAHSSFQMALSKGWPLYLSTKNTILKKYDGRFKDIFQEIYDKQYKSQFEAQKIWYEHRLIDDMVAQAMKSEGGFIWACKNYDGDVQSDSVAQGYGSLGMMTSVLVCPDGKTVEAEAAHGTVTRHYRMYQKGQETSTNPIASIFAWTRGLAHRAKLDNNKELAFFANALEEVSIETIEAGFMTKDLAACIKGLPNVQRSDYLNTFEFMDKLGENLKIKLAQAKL
Sequence of Isocitrate dehydrogenase [NADP] cytoplasmic (Homo sapiens, UniProt O75874, R132C) (O75874 2-414 R132C limits assumed): as the sequence (O75874 2-414 R132H limits assumed) above, with H131C counted along it
Sequence of Isocitrate dehydrogenase [NADP] cytoplasmic (Homo sapiens), O75874 [R132H] (O75874 whole entry R132H): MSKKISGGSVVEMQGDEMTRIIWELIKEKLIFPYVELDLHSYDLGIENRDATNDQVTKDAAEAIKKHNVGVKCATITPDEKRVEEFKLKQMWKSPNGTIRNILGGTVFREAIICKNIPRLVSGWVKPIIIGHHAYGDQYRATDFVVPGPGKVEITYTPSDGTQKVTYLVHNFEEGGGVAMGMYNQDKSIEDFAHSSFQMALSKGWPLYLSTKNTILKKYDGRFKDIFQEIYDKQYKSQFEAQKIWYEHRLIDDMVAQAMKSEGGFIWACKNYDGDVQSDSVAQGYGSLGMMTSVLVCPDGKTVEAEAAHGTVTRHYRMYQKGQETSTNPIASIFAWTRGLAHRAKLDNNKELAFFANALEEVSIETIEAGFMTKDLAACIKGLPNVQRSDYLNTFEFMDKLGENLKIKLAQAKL

inhibition [1]: > 100%
IC50 [3]: 124 nM
IC50 [4]: 95.7 nM
EC50 [5]: 182 nM
half-life [25]: 87.6 min
Tmax [26]: 1.8 min
Cmax [27]: 766 ng/mL
AUC(0-t) at 24 h [28]: 236 ng·h/mL
clearance [29]: 27.3 mL/min/kg
Cmax [30]: 478 ng/mL
CL/F [31]: 168 mL/min/kg
SMILES: COc1cc(O)c(-c2cc(-c3ccc(O)cc3)nc(N3CCNCC3)n2)cc1CC=C(C)C
Activity (HT-1080 [2]): 21.9%
Activity (HT-1080 [6]): Active
GC50 (HT-1080 [7]): 1380 nM
Activity (BEAS-2B): Non-Toxic
viability at 2 µM (HT-1080 [8]): 88.8%
Activity (HT-1080 [9]): 1.16%
Activity (HT-1080 [10]): 4.48%
Activity (HT-1080 [11]): 17.93%
viability at 6 µM (HT-1080 [12]): 91.5%
Activity (HT-1080 [13]): 0.62%
Activity (HT-1080 [14]): 3.25%
Activity (HT-1080 [15]): 11.25%
Activity (HT-1080 [16]): 1.35%
Activity (HT-1080 [17]): 55.7%
Activity (HT-1080 [18]): 22.4%
Activity (HT-1080 [19]): 56.1%
Activity (HT-1080 [20]): 21%
Activity (HT-1080 [21]): 15.9%
Activity (HT-1080 [22]): 45.4%
inhibition (HT-1080 [23]): Dose-Dependent Effect
Activity [24]: Non-Toxic
inhibition in vivo at 40 mg/kg [32]: 96%
Activity (HT-1080 [33]): Active
